# Columns and labels:
# [1] = system: Escherichia coli; experiment: Antibacterial activity against carbapenem-resistant blaKPC-encoding plasmid harboring Escherichia coli GeneHogs transformants of Klebsiella pneumoniae 469 producing KPC2, OXA4 and CTX-M-10 carbapenemases
# [2] = system: Escherichia coli; experiment: Antibacterial activity against carbapenem-resistant blaKPC-encoding plasmid harboring Escherichia coli GeneHogs transformant of Klebsiella pneumoniae 490 producing KPC3 and TEM1 carbapenemases
# [3] = system: Escherichia coli; experiment: Antibacterial activity against sEscherichia coli GeneHogs recipient strain without blaKPC-encoding plasmid
# [4] = system: Klebsiella pneumoniae; experiment: Antibacterial activity against carbapenem-resistant Klebsiella pneumoniae 490 isolate producing KPC3 and TEM1 carbapenemases; assay type: functional
# [5] = system: Klebsiella pneumoniae; experiment: Antibacterial activity against carbapenem-resistant Klebsiella pneumoniae 469 isolate producing KPC2, OXA4 and CTX-M-10 carbapenemases; assay type: functional
Molecule,MIC [1] [µg/mL],MIC [2] [µg/mL],MIC [3] [µg/mL],MIC [4] [µg/mL],MIC [5] [µg/mL]
C[C@@H](O)[C@H]1C(=O)N2C(C(=O)O)=C(S[C@@H]3CN[C@H](C(=O)Nc4cccc(C(=O)O)c4)C3)[C@H](C)[C@H]12,4,2,< 0.25,64,16
CO/N=C(\C(=O)N[C@@H]1C(=O)N2C(C(=O)[O-])=C(C[N+]3(C)CCCC3)CS[C@H]12)c1csc(N)n1,,,< 1,> 64,> 64
NCC[C@H](O)C(=O)N[C@@H]1C[C@H](N)[C@@H](O[C@H]2O[C@H](CN)[C@@H](O)[C@H](O)[C@H]2O)[C@H](O)[C@H]1O[C@H]1O[C@H](CO)[C@@H](O)[C@H](N)[C@H]1O [AMIKACIN],16,< 2,< 2,> 64,4
C[C@H]1[C@H](NC(=O)/C(=N\OC(C)(C)C(=O)O)c2csc(N)n2)C(=O)N1S(=O)(=O)O [AZTREONAM],32,,< 1,,
CC(C)(O/N=C(\C(=O)N[C@@H]1C(=O)N2C(C(=O)[O-])=C(C[n+]3ccccc3)CS[C@H]12)c1csc(N)n1)C(=O)O [CEFTAZIDIME],> 64,16,< 1,> 64,> 64
CO/N=C(\C(=O)N[C@@H]1C(=O)N2C(C(=O)O)=C(CSc3nc(=O)c(O)nn3C)CS[C@H]12)c1csc(N)n1 [CEFTRIAXONE],> 64,8,< 1,> 64,> 64
O=C(O)c1cn(C2CC2)c2cc(N3CCNCC3)c(F)cc2c1=O [CIPROFLOXACIN],,,< 0.25,,
C[C@@H](O)[C@H]1C(=O)N2C(C(=O)O)=C(SCCNC=N)C[C@H]12 [IMIPENEM ANHYDROUS],4,4,< 0.25,32,16
C[C@@H](O)[C@H]1C(=O)N2C(C(=O)O)=C(S[C@@H]3CN[C@H](C(=O)N(C)C)C3)[C@H](C)[C@H]12 [MEROPENEM],4,2,< 0.25,32,8
CCN1CCN(C(=O)N[C@@H](C(=O)N[C@@H]2C(=O)N3[C@@H]2SC(C)(C)[C@@H]3C(=O)O)c2ccccc2)C(=O)C1=O [PIPERACILLIN],> 128,> 128,< 4,> 128,> 128
CN(C)c1cc(NC(=O)CNC(C)(C)C)c(O)c2c1C[C@H]1C[C@H]3[C@H](N(C)C)C(O)=C(C(N)=O)C(=O)[C@@]3(O)C(O)=C1C2=O [TIGECYCLINE],0.5,0.5,0.016,2,2
COLISTIN,,,,0.25,0.25
